According to ChEMBL document CHEMBL5649166, “RIP3 induces apoptosis independent of pronecrotic kinase activity” (Mol Cell, 2014):

Legend:
[1] = molecular target: Tyrosine-protein kinase SYK (Homo sapiens) (UniProt P43405); experiment: Inhibition of human SYK using poly[Glu:Tyr] (4:1) as substrate at 1 uM in presence of 32P-ATP by Hotspot assay relative to control; values are per cent of control
[2] = molecular target: T1, Mitogen-activated protein kinase 13 (Homo sapiens) (UniProt O15264); experiment: Inhibition of human P38d/MAPK13 using myelin basic protein as substrate at 1 uM in presence of 32P-ATP by Hotspot assay relative to control; values are per cent of control
T1 sequence (whole entry): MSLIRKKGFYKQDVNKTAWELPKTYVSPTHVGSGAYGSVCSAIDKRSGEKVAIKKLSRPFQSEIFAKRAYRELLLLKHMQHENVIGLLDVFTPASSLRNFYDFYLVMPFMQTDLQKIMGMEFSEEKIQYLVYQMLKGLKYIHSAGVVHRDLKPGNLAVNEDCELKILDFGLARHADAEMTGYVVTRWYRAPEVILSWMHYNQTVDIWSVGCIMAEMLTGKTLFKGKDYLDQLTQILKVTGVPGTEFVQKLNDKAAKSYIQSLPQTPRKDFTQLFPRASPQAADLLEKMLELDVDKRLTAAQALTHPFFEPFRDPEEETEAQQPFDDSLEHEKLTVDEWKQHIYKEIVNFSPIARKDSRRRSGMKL

[3] = molecular target: ALK tyrosine kinase receptor (Homo sapiens) (UniProt Q9UM73); experiment: Inhibition of human ALK using poly[Glu:Tyr] (4:1) as substrate at 1 uM in presence of 32P-ATP by Hotspot assay relative to control; values are per cent of control
[4] = molecular target: T2, Serine/threonine-protein kinase BRSK2 (Homo sapiens) (UniProt Q8IWQ3); experiment: Inhibition of human BRSK2 using KKLNRTLSFAEPG as substrate at 1 uM in presence of 32P-ATP by Hotspot assay relative to control; values are per cent of control
T2 sequence (whole entry): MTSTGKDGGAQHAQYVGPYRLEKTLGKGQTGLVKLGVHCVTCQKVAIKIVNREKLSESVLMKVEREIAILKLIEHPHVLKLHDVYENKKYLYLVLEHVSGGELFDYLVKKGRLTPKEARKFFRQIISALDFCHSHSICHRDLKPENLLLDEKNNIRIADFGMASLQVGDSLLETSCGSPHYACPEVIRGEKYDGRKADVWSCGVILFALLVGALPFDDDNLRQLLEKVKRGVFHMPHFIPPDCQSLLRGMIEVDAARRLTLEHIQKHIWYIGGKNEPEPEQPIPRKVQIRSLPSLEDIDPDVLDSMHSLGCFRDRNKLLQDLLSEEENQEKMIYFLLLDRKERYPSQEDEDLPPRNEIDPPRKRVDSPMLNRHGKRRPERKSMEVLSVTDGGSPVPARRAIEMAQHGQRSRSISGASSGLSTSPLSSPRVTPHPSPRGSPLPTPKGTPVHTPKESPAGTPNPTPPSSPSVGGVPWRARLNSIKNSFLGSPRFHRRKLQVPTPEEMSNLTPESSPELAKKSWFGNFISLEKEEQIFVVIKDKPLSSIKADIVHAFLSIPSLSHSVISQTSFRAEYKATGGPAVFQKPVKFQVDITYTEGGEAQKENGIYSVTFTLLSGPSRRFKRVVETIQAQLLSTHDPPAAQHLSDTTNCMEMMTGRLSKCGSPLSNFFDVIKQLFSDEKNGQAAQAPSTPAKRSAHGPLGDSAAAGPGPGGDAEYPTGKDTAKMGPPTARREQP

[5] = molecular target: Glycogen synthase kinase-3 beta (Homo sapiens) (UniProt P49841); experiment: Inhibition of human GSK3b using YRRAAVPPSPSLSRHSSPHQ(pS)EDEEE as substrate at 1 uM in presence of 32P-ATP by Hotspot assay relative to control; values are per cent of control
[6] = molecular target: T3, Rhodopsin kinase GRK7 (Homo sapiens) (UniProt Q8WTQ7); experiment: Inhibition of human GRK7 using casein as substrate at 1 uM in presence of 32P-ATP by Hotspot assay relative to control; values are per cent of control
T3 sequence (whole entry): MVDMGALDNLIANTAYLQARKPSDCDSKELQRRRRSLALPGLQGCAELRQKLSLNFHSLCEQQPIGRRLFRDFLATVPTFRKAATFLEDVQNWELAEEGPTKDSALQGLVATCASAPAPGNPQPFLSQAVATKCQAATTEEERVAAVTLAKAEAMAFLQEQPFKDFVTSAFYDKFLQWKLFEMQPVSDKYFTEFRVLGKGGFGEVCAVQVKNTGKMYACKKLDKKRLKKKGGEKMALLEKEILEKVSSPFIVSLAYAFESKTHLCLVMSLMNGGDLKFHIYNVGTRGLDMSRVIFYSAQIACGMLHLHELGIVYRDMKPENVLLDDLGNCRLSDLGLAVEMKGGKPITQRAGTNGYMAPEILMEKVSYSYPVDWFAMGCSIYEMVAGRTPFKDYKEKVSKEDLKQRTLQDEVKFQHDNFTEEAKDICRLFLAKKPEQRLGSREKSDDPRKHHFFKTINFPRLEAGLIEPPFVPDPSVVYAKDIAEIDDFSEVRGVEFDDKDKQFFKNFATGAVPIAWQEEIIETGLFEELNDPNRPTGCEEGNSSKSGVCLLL

[7] = molecular target: CDK4/Cyclin D3 (Homo sapiens) (UniProt P11802+P30281); experiment: Inhibition of human CDK4/cyclin D3 using RB-CTF as substrate at 1 uM in presence of 32P-ATP by Hotspot assay relative to control; values are per cent of control

Chain of Glycogen synthase kinase-3 beta (Homo sapiens) (P49841 whole entry, looked up): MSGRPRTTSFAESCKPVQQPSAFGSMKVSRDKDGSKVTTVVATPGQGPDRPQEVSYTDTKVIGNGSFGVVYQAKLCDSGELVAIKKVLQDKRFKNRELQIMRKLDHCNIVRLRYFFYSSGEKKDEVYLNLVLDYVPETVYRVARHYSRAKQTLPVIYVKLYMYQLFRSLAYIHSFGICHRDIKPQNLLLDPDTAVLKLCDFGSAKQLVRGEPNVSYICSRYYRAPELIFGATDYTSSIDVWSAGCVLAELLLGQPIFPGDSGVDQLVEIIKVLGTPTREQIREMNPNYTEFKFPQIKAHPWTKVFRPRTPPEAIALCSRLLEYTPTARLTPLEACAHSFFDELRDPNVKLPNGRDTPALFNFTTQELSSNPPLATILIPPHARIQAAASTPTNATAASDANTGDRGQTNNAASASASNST
Chain of ALK tyrosine kinase receptor (Homo sapiens) (Q9UM73 19-1620 limits assumed): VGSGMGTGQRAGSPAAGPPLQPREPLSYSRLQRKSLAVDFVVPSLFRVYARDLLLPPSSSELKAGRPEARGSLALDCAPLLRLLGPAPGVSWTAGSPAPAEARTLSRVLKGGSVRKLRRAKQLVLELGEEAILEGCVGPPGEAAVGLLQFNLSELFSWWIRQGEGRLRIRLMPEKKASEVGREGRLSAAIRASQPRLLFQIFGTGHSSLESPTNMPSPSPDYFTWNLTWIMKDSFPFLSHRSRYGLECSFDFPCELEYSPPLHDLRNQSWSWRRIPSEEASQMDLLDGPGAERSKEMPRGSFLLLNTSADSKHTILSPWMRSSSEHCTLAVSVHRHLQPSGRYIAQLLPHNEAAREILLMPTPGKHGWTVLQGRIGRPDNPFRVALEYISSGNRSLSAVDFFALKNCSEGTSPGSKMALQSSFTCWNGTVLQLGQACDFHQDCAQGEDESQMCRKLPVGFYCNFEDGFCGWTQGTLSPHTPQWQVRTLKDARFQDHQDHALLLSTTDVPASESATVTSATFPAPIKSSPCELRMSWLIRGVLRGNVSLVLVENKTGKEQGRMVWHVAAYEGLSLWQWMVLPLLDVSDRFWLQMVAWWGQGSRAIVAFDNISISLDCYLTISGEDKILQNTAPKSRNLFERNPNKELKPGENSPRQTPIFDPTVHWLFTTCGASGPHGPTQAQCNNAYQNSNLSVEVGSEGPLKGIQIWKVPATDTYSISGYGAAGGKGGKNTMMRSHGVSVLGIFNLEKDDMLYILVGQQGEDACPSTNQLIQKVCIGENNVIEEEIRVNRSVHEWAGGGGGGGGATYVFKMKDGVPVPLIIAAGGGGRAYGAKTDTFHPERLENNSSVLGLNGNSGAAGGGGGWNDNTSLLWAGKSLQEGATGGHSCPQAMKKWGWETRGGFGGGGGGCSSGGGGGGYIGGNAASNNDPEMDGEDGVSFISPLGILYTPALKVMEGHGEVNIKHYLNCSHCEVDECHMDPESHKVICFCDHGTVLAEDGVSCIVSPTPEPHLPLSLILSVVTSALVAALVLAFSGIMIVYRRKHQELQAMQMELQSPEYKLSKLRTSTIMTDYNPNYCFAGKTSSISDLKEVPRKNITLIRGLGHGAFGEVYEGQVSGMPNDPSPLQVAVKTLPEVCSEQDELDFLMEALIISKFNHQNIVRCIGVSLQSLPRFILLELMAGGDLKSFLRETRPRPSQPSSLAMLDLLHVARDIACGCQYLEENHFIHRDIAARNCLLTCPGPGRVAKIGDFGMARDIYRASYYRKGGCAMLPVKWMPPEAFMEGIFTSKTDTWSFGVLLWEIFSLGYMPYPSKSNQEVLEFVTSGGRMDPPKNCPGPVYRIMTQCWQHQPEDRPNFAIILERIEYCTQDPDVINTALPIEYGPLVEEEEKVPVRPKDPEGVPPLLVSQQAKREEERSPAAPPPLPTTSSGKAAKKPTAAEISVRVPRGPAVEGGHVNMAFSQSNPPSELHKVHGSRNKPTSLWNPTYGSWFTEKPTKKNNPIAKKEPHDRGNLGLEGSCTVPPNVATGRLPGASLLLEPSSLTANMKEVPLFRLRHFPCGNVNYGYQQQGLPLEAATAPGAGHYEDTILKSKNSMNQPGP

Row | Structure (SMILES) | residual activity [1] | residual activity [2] | residual activity [3] | residual activity [4] | residual activity [5] | residual activity [6] | residual activity [7]
1 | CC(C)S(=O)(=O)c1ccc2nccc(Nc3ccc4scnc4c3)c2c1 | 93.3% | 94.8% | 90.8% | 99.4% | 83.8% | 101% | 102%
2 | Cc1cc(-c2cnc(N)c3c(-c4ccc5scnc5c4)csc23)n(C)n1 | 92.8% | 103% | 96.6% | 89% | 93.2% | 100% | 108%
3 | CNC(=O)c1ccc2c(c1)ncn2-c1ccc(CC(=O)OC(C)(C)C)cc1 | 87.5% | 104% | 101% | 92% | 65.2% | 92.4% | 98.2%
